The text below walks through data of a melting point compilation (Tetko et al.; mined from patent text by program, amines drawn as free bases though some values may be those of a salt).

The structures appear in SMILES notation.

As a reminder, the melting point is the temperature, or range, at which the solid turns liquid. As for `CCOC(=O)c1ncn(-c2nncs2)c1S(N)(=O)=O`, the melting point is 168 to 171 °C.
With `CCCSC(Cn1ccnc1)(SCCC)c1ccc2ccccc2c1` the figure was 188 to 190 °C.
With `N#Cc1c(N)nc2ccc(N3CCOCC3)cc2c1Cl` the figure was 206 °C.
With `CNNC(=O)c1ccc(C(=O)NNC)cc1` the figure was 240 to 241 °C; with `COc1cc2c(cc1S(=O)(=O)c1ccc(C)cc1)[C@@H](N1CCCCC1=O)[C@H](O)C(C)(C)O2` (relative stereo), 261 to 263 °C; with `Clc1ccc(CC2(c3cccnc3)OCCO2)c(Cl)c1`, 76 to 78 °C.
`Cc1c(CCl)nc2c(NC(=O)C(C)(C)C)cccn12` returned a melting point of 168 °C.
In turn, `CCOc1cc2c(cc1OCC)C1CC(=O)C(CC)CN1CC2` (stereo not given) showed a melting point of 115 to 118 °C.
`CC1(C(=O)NCc2cccs2)CCCCC1` yielded a melting point of 72 to 73 °C.
With `CSc1ncc2cc(Cc3ccccc3)oc2n1`, the melting point lay within 69 to 72.2 °C.
With `O=C(Nc1ccc(C(F)(F)F)cc1)Nc1cccc(S(=O)(=O)Nc2ccc(Cl)cc2)c1` the figure was 196 to 198 °C.
The molecule `COc1cccc(C(=O)NN=C2C(=O)Nc3ccc(I)cc32)c1` came in with a melting point of 287 °C.
With `CCOC(=O)c1nc2scc(COCc3ccc(F)cc3)c2c(=O)[nH]1` the figure was 195 to 196 °C.
With `Cc1noc2c(Oc3ncccc3C(=O)NCC3CCC(C(C)(C)O)CC3)cccc12` (stereo not given) the figure was 170 to 172 °C; with `CC(O)(COc1ccc(-c2ccc(Cl)cc2)cc1)CN1CCCC1` (stereo not given), 121 to 122 °C; with `CCOc1cc(Cc2cnc(N)nc2N)cc2c1OC(C)(C)C=C2CO`, 187 to 189 °C.
With `CCOC(=O)N1CCC(=C2c3sccc3C=Cn3ccnc32)CC1` the figure was 176 °C; with `COc1cc2[nH]cc(C3CN4CCC3CC4)c2cc1OC` (stereo not given), 243 to 245 °C.
The molecule `COc1cc2c(cc1O)CCN(Cc1cccc(NS(C)(=O)=O)c1)C2` came in with a melting point of 99 to 101 °C.
With `CCCCOCCOc1ccc(-c2ccc3c(c2)C=C(C(=O)O)CCN3CC2CCCCC2)cc1` the figure was 124 to 125 °C; with `Clc1ccc([C@@H]2CNc3c(ccc4ccccc34)S2)cc1`, 205 to 206 °C.
With `COc1ccc2cc(NC(C)=O)c3ccc(C)cc3c2c1OC` the figure was 190 to 192 °C.
With `CC(=O)c1ccc2ccc3c(c2c1)C(CCl)CN3C(=O)OC(C)(C)C` (stereo not given) the figure was 98 to 100 °C; with `Cc1cc(NC(=O)CCCCCBr)ccc1O`, 111 to 112 °C; with `CC1CCCNC(=O)C1` (stereo not given), 87 to 100 °C.
Molecule `COc1cc2ncc(C#N)c(Nc3ccc(F)c(Cl)c3)c2cc1NC(=O)C=CCN1C(C)CCCC1C` (stereo not given) showed a melting point of 120 to 122 °C.
With `COc1c2c(cc3c1OCO3)C(O)CN(C)C2` (stereo not given) the figure was 151 to 153 °C.
Molecule `CC(C)(C)OC1C2C=CC1C1N=NC21` (stereo not given) displayed a melting point of 78 °C.
On to `Cc1c(Sc2ccccc2S(C)(=O)=O)c2cc(NS(C)(=O)=O)ccc2n1CC(=O)O`, for which the melting point was 227 to 230 °C.
With `CC(=O)c1nc2ccc(C)cc2cc1O` the figure was 124 to 126 °C.
With `N#Cc1[nH]c(-c2ccc(Cl)cc2)c(Br)c1-c1ccc(Cl)cc1` the figure was 98 to 100 °C; with `COc1cccc(NCC(=O)Nc2ccc(S(N)(=O)=O)cc2Cl)c1`, 148 to 152 °C; with `CCOCc1nc2c(N)nc3cc(-c4cccnc4)ccc3c2n1Cc1ccc(CNC(=O)OC(C)(C)C)cc1`, 196 to 197 °C.
With `Cc1nc(-c2ccc([N+](=O)[O-])cc2)c[nH]1` the figure was 216 to 219 °C.
As for `O=C(Nc1ccc2[nH]nc(C#Cc3ccccc3)c2c1)N[C@@H](c1ccc(Cl)c(Cl)c1)[C@@H]1CCCCN1`, the melting point was determined as 160 °C.
With `CCN(CC)S(=O)(=O)c1cc(-c2csc(=Nc3ccc(Cl)cc3)n2C)ccc1Cl` the figure was 198 °C.
`Nc1c(Br)cc(O)c2c1C(=O)c1ccccc1C2=O` came in with a melting point of 226 to 228 °C.
With `COC(=O)C(NS(=O)(=O)Cc1c(Cl)c(C)cc2nc(OC)c(OC)nc12)c1ccccc1` (stereo not given) the figure was 214 to 217 °C; with `CC(=O)Oc1ccc(C(Cl)=CC=O)cc1[N+](=O)[O-]`, 128 to 130 °C.
The molecule `C#CCOC(C(=O)Nc1ccccc1-c1ccc(O)c(OC)c1)c1ccc(Cl)cc1` (stereo not given) had a melting point of 140 to 142 °C.
With `O=C1NC(=O)C(Cc2ccc(OCc3nc4cccnc4n3-c3ccccc3)cc2)S1` (stereo not given) the figure was 88 to 91 °C.
`CCCCc1nc2c(N)nc3ccccc3c2n1CCNS(C)(=O)=O` gave a melting point of 210 to 211 °C.
With `CS(=O)c1ccc2c(c1)C=C(C(=O)O)C(C(F)(F)F)O2` (stereo not given) the figure was 148 to 151 °C; with `CCOC(=O)c1cnn2c(-c3ccc(OC)c(OC)c3)ccnc12`, 148 to 149 °C.
With `NC(=O)c1c(Br)cc(Br)c(CCC(=O)O)c1Br` the figure was 197 °C; with `COc1cc(C(C)=O)cc(C#N)c1OC`, 125 to 126 °C; with `CC(=O)CC(C)c1ccc(-c2ccccc2)cc1` (stereo not given), 67 °C.
Molecule `CC(=O)Nc1cc(N2CCCC2)c2c(Cl)ccc3c2c1C(=O)N(O)C3=O` showed a melting point of 152 to 154 °C.
With `Cn1cc2c(n1)SSSSS2` the figure was 94 to 102 °C; with `O=CC=C(c1ccc(F)cc1)c1ccc(F)cc1`, 56 to 58 °C.
With `COC(=O)C1CC(O)CN1C(=O)c1cc2c(cc1[N+](=O)[O-])OCO2` (stereo not given) the figure was 166 °C; with `N#CC(=NOS(=O)(=O)c1ccc(C(=O)Cl)cc1)c1ccccc1`, 193 to 195 °C; with `C=C(C)C1CCC2(CO)CCC3(C)C(CCC4C5(C)CCC(O)C(C)(CO)C5CCC43C)C12` (stereo not given), 256 to 260 °C.
With `Cc1cccc(-c2[nH]c(C(C)C)nc2-c2cccc(-c3ccc4c(c3)C=CS4(=O)=O)c2)n1` the figure was 137 to 138 °C.
Molecule `CCOC(=O)c1ccc(NC(=S)NCCn2c(C)ccc2C)cc1` returned a melting point of 155 to 156 °C.
With `O=C(c1ccc(Nc2ccnc3cc(C(F)(F)F)ccc23)cc1)N1CCN(c2ncccn2)CC1` the figure was 246 to 248 °C; with `COC(=O)[C@@H]1COC(=S)N1C(C)=O`, 68 to 68.4 °C.
With `CCOC(=O)c1cccc(-c2cccc3cc(CBr)sc23)c1` the figure was 96 to 97 °C.
With `COC(=O)NC(=O)Nc1ccc(OC)c(OC)c1` the figure was 168 to 170 °C; with `C[C@@H](n1cnc2cc(-c3ccc(C(=N)NCCN)cc3)sc2c1=O)[C@](O)(Cn1cncn1)c1ccc(F)cc1F`, 154 to 161 °C.
`CC(O)c1nc(NCCCOc2cccc(CN3CCCCC3)c2)n(C)n1` (stereo not given) had a melting point of 67 to 68 °C.
Take `O=C(Nc1nc(C(F)(F)C(F)(F)F)c(CO)s1)c1cc(C(F)(F)F)cc(C(F)(F)F)c1`: the melting point fell in the range of 164 to 165 °C.
With `O=C(O)Cc1nn(Cc2ccc(Br)c(Cl)c2)c(=O)c2ccccc12` the figure was 186 °C; with `O=C(NCc1ccccc1)c1cc2ccnc(Cl)c2[nH]1`, 217 to 220 °C.
With `CCN1C(=O)CC[C@@H]2c3ccc(Cl)cc3CC[C@H]21` the figure was 108 to 110 °C; with `O=C(CC(=Cc1cccc2ccccc12)C(=O)O)NCCc1ccccc1`, 183 to 187 °C; with `CCSC[C@@H]1[C@@H](c2ccc(Cl)c(Cl)c2)C[C@@H]2CC[C@H]1N2C`, 69 to 71 °C.
With `CC(C)(C)c1cc(SCCCCSCC(=O)O)cc(C(C)(C)C)c1O` the figure was 84 to 86 °C.
As to `Cc1cc(C)c2ncc(NC(=O)c3cc(C(C)C)c(O)c(C(C)C)c3)c(-c3ccccc3Cl)c2c1`, the melting point lay within 237 to 238 °C.
Regarding `Cn1cc(Cc2ccc(C(=O)N3CCC(N4CCCC4)C3)cc2)c2ccccc21` (stereo not given), the melting point fell in the range of 73 to 78 °C.
`COc1ccc(C)nc1Cn1c(NCCCN2CCOCC2)nc2ccc(CNc3cc(C)ccc3CCCO)cc21` registered a melting point of 132 °C.
With `O=c1cc(Nc2ccc3c(c2)CCC3)[nH]c(=S)[nH]1` the figure was 269 to 272 °C; with `CC(O)CCCCCCCc1ccc(O)c(O)c1` (stereo not given), 58 to 61 °C.
As for `O=C(CCCCCNC1(c2ccccc2Cl)C(=O)Nc2ccc(Cl)cc21)OCc1ccccc1` (stereo not given), the melting point lay in the range of 98 to 99 °C.
In turn, `CC(C)C(=O)Nc1csc(Br)n1` showed a melting point of 95 °C.
With `O=S1N=CC(NCc2ccncc2)=N1` (stereo not given) the figure was 129 to 130 °C.
With `Cc1cc(OCCNC(=O)C2Cc3ccccc3N2S(=O)(=O)c2ccc(-c3cccc(C(F)(F)F)c3)cc2)ccc1CC(=O)O` (stereo not given) the figure was 87 to 90 °C; with `O=S(=O)(CS(=O)(=O)C1CCCCC1)C1CCCCC1`, 137 to 139 °C; with `CC(C)(C)n1nc(Nc2ccccc2)c(C(N)=O)c1N`, 225 to 227 °C.
With `NC(=O)CC(O)(c1ccc(Br)cc1)c1cccnc1` (stereo not given) the figure was 213 to 214 °C.
In turn, `COc1cc(Nc2cccc(-c3ccccc3)c2)ccc1-c1cnco1` showed a melting point of 171 to 173 °C.
With `CC(C)(C)CC(NC(=O)c1ccc(Cl)cc1)NC(=N[N+](=O)[O-])Nc1cccnc1` (stereo not given) the figure was 184 to 185 °C; with `CC(C)(C)c1cc(NC(=O)c2cccc(C#N)c2)cc(C(C)(C)C)c1O`, 219 to 222 °C; with `COCCn1c(C)c(C2(c3ccc(N(C)C)cc3C)OC(=O)c3ccccc32)c2ccccc21` (stereo not given), 205 to 207 °C.
With `O=C(N=CNO)c1nccc2c1[nH]c1ccccc12` the figure was 235 to 240 °C; with `O=C(CC1CCCCC1=O)c1ccc([N+](=O)[O-])cc1` (stereo not given), 61 to 63 °C; with `CC(COc1ccc(CC2SC(=O)NC2=O)cc1)N1CC(COc2cccc(Cl)c2)OC1=O` (stereo not given), 48 to 53 °C.
With `CC(=O)N(CC(=O)O)c1ccccc1C(=O)O` the figure was 206 °C; with `CC(=O)Nc1ccc(CSc2nc3cnccc3[nH]2)cc1`, 231 to 234 °C.
The molecule `COc1cc(C(O)c2ccc3ccccc3c2)ccc1OCc1ccccc1` (stereo not given) showed a melting point of 113 to 114 °C.
